Reference: patent publication US5059597A, “7-(4-oxa or 4-thia-2,7-diazabicyclo[3.3.0]oct-2-en-3-yl)-3-quinolone-and-naphthyrido ne-carboxylic acid derivatives as antibacterial agents and feed additives” (Bayer Aktiengesellschaft, priority 1988, dated 1991)
Converted amounts (≈) assume the structure as drawn. Like-named read-outs stand apart in the source and are kept apart here.

Columns and labels:
[1] = test system: Enterococcus faecalis 9790; assay: MIC, agar dilution test (Denley multipoint inoculator; Iso-sensitest agar); type: cell-based; conditions: read-out: MIC values
Description: (§1) The minimum inhibitory concentrations (MIC) were determined by the series dilution method on Iso-Sensitest agar (Oxoid). For each test substance, a series of agar plates which contained concentrations of the active compound which decreased by a dilution factor of two each time was prepared. The agar plates were inoculated with a multipoint inoculator (Denley). Overnight cultures of the pathogens which had first been diluted so that each inoculation point contained about 10^4 colony-forming particles were used for the inoculation. The inoculated agar plates were incubated at 37° C. and the germ growth was read off after about 20 hours. The MIC value (μg/ml) indicates the lowest active compound concentration at which no germ growth was to be detected with the naked eye.
(§2) The MIC values of some of the compounds according to the invention are shown in comparison with ciprofloxacin in the following table.
(§3) MIC values (mg/l) determined by the agar dilution
(§4) test (Denley multipoint inoculator; Iso-sensitest agar)

[2] = test system: Escherichia coli Neumann; assay: as above; type: cell-based; conditions: 37° C., about 20 hours, about 10^4 colony-forming particles
Description: as §1, §2, §3, §4

[3] = test system: Staphylococcus aureus 133; assay: as above; type: cell-based; conditions: read-out: MIC values
Description: as §1, §2, §3, §4

[4] = test system: Proleus mirabilis 8223; assay: as above; type: cell-based; conditions: 37° C., about 20 hours, about 10^4 colony-forming particles
Description: as §1, §2, §3, §4

[5] = test system: Staphylococcus aureus FK 422; assay: as above; type: cell-based; conditions: read-out: MIC values
Description: as §1, §2, §3, §4

[6] = test system: Enterococcus faecalis 27101; assay: as above; type: cell-based; conditions: read-out: MIC values
Description: as §1, §2, §3, §4

[7] = test system: Morganella morganii 932; assay: as above; type: cell-based; conditions: 37° C., about 20 hours, about 10^4 colony-forming particles
Description: as §1, §2, §3, §4

[8] = test system: Staphylococcus aureus 1756; assay: as above; type: cell-based; conditions: read-out: MIC values
Description: as §1, §2, §3, §4

[9] = test system: Providencia stuartei 12052; assay: as above; type: cell-based; conditions: 37° C., about 20 hours, about 10^4 colony-forming particles
Description: as §1, §2, §3, §4

[10] = test system: Proleus vulgaris 1017; assay: as above; type: cell-based; conditions: 37° C., about 20 hours, about 10^4 colony-forming particles
Description: as §1, §2, §3, §4

[11] = Solubility in water; type: physicochemical; conditions: mesylate salt
[12] = Enterococcus faecalis 9790, 37° C., about 20 hours, about 10^4 colony-forming particles
[13] = Staphylococcus aureus 133, 37° C., about 20 hours, about 10^4 colony-forming particles
[14] = FK422, Staphylococcus aureus FK 422, 37° C., about 20 hours, about 10^4 colony-forming particles
[15] = Enterococcus faecalis 27101, 37° C., about 20 hours, about 10^4 colony-forming particles
[16] = Staphylococcus aureus 1756, 37° C., about 20 hours, about 10^4 colony-forming particles

Compound	MIC [1, 12] [µg/mL]	MIC [2] [µg/mL]	MIC [3, 13] [µg/mL]	MIC [4] [µg/mL]	MIC [5, 14] [µg/mL]	MIC [6, 15] [µg/mL]	MIC [7] [µg/mL]	MIC [8, 16] [µg/mL]	MIC [9] [µg/mL]	MIC [10] [µg/mL]	MIC ([1]; Enterococcus faecalis, 9790, 20 h) [µg/mL]	MIC ([3]; Staphylococcus aureus, 133, 20 h) [µg/mL]	MIC ([5]; Staphylococcus aureus, FK422, 20 h) [µg/mL]	MIC ([6]; Enterococcus faecalis, 27101, 20 h) [µg/mL]	MIC ([8]; Staphylococcus aureus, 1756, 20 h) [µg/mL]	solubility in water [11]
CO[C@@H]1CN(c2c(F)cc3c(=O)c(C(=O)O)cn(C4CC4)c3c2F)C[C@H]1N.Cl (relative stereo) [Example 1, 7-(trans-3-amino-4-methoxy-1-pyrrolidinyl)-1-cyclopropyl-6,8-difluoro-4-oxo-3-quinolinecarboxylic acid hydrochloride]	0.125	≤ 0.015	0.06	1	0.06	0.125	≤ 0.015	0.06	1	≤ 0.015						
CO[C@@H]1CN(c2cc3c(cc2F)c(=O)c(C(=O)O)cn3C2CC2)C[C@H]1N.Cl (relative stereo) [Example 2, 7-(trans-3-Amino-4-methoxy-1-pyrrolidinyl)-1-cyclopropyl-6-fluoro-4-oxo-3-quinolinecarboxylic acid hydrochloride]	0.5	≤ 0.015	0.125	4	0.125		0.03	0.125	4	0.125						
CO[C@H]1CN(c2c(F)cc3c(=O)c(C(=O)O)cn(C4CC4)c3c2F)C[C@H]1N.Cl (relative stereo) [Example 3, 7-(cis-3-Amino-4-methoxy-1-pyrrolidinyl)-1-cyclopropyl-6,8-difluoro-4-oxo-3-quinolinecarboxylic acid hydrochloride]	0.25	≤ 0.015	0.03	1	0.06	0.125	0.03	0.06	2	≤ 0.015						
CO[C@H]1CN(c2c(F)cc3c(=O)c(C(=O)O)cn(C4CC4)c3c2Cl)C[C@H]1N.O=C(O)C(F)(F)F (relative stereo) [Example 4, 7-(cis-3-amino-4-methoxy-1-pyrrolidinyl)-8-chloro-1-cyclopropyl-6-fluoro-1,4-dihydro-4-oxo-3-quinolinecarboxylic acid trifluoroacetate]	0.06	≤ 0.015	≤ 0.015	0.5	≤ 0.016	0.06	≤ 0.015	≤ 0.015	0.5	≤ 0.015						
CO[C@H]1CN(c2cc3c(cc2F)c(=O)c(C(=O)O)cn3C2CC2)C[C@H]1N.Cl (relative stereo) [Example 5, 7-(cis-3-Amino-4-methoxy-1-pyrrolidinyl)-1-cyclopropyl-6-fluoro-1,4-dihydro-4-oxo-3-quinolinecarboxylic acid hydrochloride]	0.25	≤ 0.015	0.125	2	0.125	0.25	≤ 0.015	0.125	4	0.03						
O=C(O)c1cn(C2CC2)c2cc(N3CCNCC3)c(F)cc2c1=O [Ciprofloxacin, ciprofloxacin, reference compound]		≤ 0.015		1 (≈ 3.02 µM)			≤ 0.015		4 (≈ 12.1 µM)	≤ 0.015	0.25 (≈ 0.754 µM)	0.25 (≈ 0.754 µM)	0.25 (≈ 0.754 µM)	0.05 (≈ 0.151 µM)	0.25 (≈ 0.754 µM)	
O=C(O)c1cn(C2CC2)c2c(F)c(N3CC4NCCOC4C3)c(F)cc2c1=O (centres unmarked) [Example 8, 1-cyclopropyl-6,8-difluoro-1,4-dihydro-7-(2-oxa-5,8-diazabicyclo[4.3.0]non-8-yl)-4-oxo-3-quinolinecarboxylic acid]	0.125 (≈ 0.319 µM)	≤ 0.015	0.03 (≈ 0.0767 µM)	2 (≈ 5.11 µM)	0.03 (≈ 0.0767 µM)	0.125 (≈ 0.319 µM)	0.06 (≈ 0.153 µM)	0.03 (≈ 0.0767 µM)	4 (≈ 10.2 µM)	0.06 (≈ 0.153 µM)						
CN1CCOC2CN(c3c(F)cc4c(=O)c(C(=O)O)cn(C5CC5)c4c3F)CC21 (centres unmarked) [Example 9, 1-cyclopropyl-6,8-difluoro-1,4-dihydro-7-(5-methyl-2-oxa-5,8-diazabicyclo[4.3.0]non-8-yl)-4-oxo-3-quinolinecarboxylic acid]	0.25 (≈ 0.617 µM)	0.25 (≈ 0.617 µM)	0.06 (≈ 0.148 µM)	8 (≈ 19.7 µM)	0.06 (≈ 0.148 µM)	0.25 (≈ 0.617 µM)	0.5 (≈ 1.23 µM)	0.06 (≈ 0.148 µM)	32 (≈ 78.9 µM)	0.5 (≈ 1.23 µM)						
CN1CCOC2CN(c3cc4c(cc3F)c(=O)c(C(=O)O)cn4C3CC3)CC21 (centres unmarked) [Example 10, 1-cyclopropyl-6-fluoro-1,4-dihydro-7-(5-methyl-2-oxa-5,8-diazabicyclo[4.3.0]non-8-yl)-4-oxo-3-quinolinecarboxylic acid]	2 (≈ 5.16 µM)	0.125 (≈ 0.323 µM)	0.125 (≈ 0.323 µM)	16 (≈ 41.3 µM)	0.125 (≈ 0.323 µM)	2 (≈ 5.16 µM)	0.5 (≈ 1.29 µM)	0.125 (≈ 0.323 µM)	64 (≈ 165 µM)	1 (≈ 2.58 µM)						
CN1CCCC2CN(c3c(F)cc4c(=O)c(C(=O)O)cn(C5CC5)c4c3F)CC21 (centres unmarked) [Example 13, 1-cyclopropyl-6,8-difluoro-1,4-dihydro-7-(2-methyl-2,8-diazabicyclo[4.3.0]non-8-yl)-4-oxo-3-quinolinecarboxylic acid]	0.25 (≈ 0.62 µM)	0.06 (≈ 0.149 µM)	0.06 (≈ 0.149 µM)	1 (≈ 2.48 µM)	0.06 (≈ 0.149 µM)	0.125 (≈ 0.31 µM)	0.125 (≈ 0.31 µM)	0.06 (≈ 0.149 µM)	2 (≈ 4.96 µM)	0.03 (≈ 0.0744 µM)						
CN1CCCC2CN(c3cc4c(cc3F)c(=O)c(C(=O)O)cn4C3CC3)CC21 (centres unmarked) [Example 14, 1-cyclopropyl-6-fluoro-1,4-dihydro-7-(2-methyl-2,8-diazabicyclo[4.3.0]non-8-yl)-4-oxo-3-quinolinecarboxylic acid]	0.5 (≈ 1.3 µM)	0.06 (≈ 0.156 µM)	0.25 (≈ 0.649 µM)	4 (≈ 10.4 µM)	0.25 (≈ 0.649 µM)	0.25 (≈ 0.649 µM)	0.25 (≈ 0.649 µM)	0.25 (≈ 0.649 µM)	4 (≈ 10.4 µM)	0.5 (≈ 1.3 µM)						
O=C(O)c1cn(C2CC2)c2c(F)c(N3CC4CCCNC4C3)c(F)cc2c1=O (centres unmarked) [Example 15, 1-cyclopropyl-7-(2,8-diazabicyclo[4.3.0]non-8-yl)-6,8-difluoro-1,4-dihydro-4-oxo-3-quinolinecarboxylic acid]		≤ 0.015	0.03 (≈ 0.077 µM)	0.5 (≈ 1.28 µM)	0.03 (≈ 0.077 µM)	0.03 (≈ 0.077 µM)	0.03 (≈ 0.077 µM)	0.03 (≈ 0.077 µM)	1 (≈ 2.57 µM)	0.03 (≈ 0.077 µM)						
O=C(O)c1cn(C2CC2)c2cc(N3CC4CCNC4C3)c(F)cc2c1=O (centres unmarked) [Example 16, 1-cyclopropyl-7-(2,7-diazabicyclo[3.3.0]oct-7-yl)-6-fluoro-1,4-dihydro-4-oxo-3-quinolinecarboxylic acid]	0.5 (≈ 1.4 µM)	0.06 (≈ 0.168 µM)	0.125 (≈ 0.35 µM)	4 (≈ 11.2 µM)	0.125 (≈ 0.35 µM)	0.5 (≈ 1.4 µM)	0.06 (≈ 0.168 µM)	0.125 (≈ 0.35 µM)	32 (≈ 89.5 µM)	0.06 (≈ 0.168 µM)						
CN1CCC2CN(c3cc4c(cc3F)c(=O)c(C(=O)O)cn4C3CC3)CC21 (centres unmarked) [Example 17, 1-cyclopropyl-6-fluoro-1,4-dihydro-7-(2-methyl-2,7-diazabicyclo[3.3.0]oct-7-yl)-4-oxo-3-quinolinecarboxylic acid]	2 (≈ 5.38 µM)	0.125 (≈ 0.337 µM)	0.5 (≈ 1.35 µM)	8 (≈ 21.5 µM)	0.5 (≈ 1.35 µM)	1 (≈ 2.69 µM)	0.5 (≈ 1.35 µM)	0.5 (≈ 1.35 µM)	8 (≈ 21.5 µM)	0.5 (≈ 1.35 µM)						
CN1CCC2CN(c3c(F)cc4c(=O)c(C(=O)O)cn(C5CC5)c4c3F)CC21 (centres unmarked) [Example 18, 1-cyclopropyl-6,8-difluoro-1,4-dihydro-7-(2-methyl-2,7-diazabicyclo[3.3.0]oct-7-yl)-4-oxo-3-quinolinecarboxylic acid]	0.5 (≈ 1.28 µM)	0.03 (≈ 0.077 µM)	0.125 (≈ 0.321 µM)	1 (≈ 2.57 µM)	0.125 (≈ 0.321 µM)	0.25 (≈ 0.642 µM)	0.06 (≈ 0.154 µM)	0.125 (≈ 0.321 µM)	4 (≈ 10.3 µM)	0.06 (≈ 0.154 µM)						
CS(=O)(=O)O.O=C(O)c1cn(C2CC2)c2c(F)c(N3CC4CCCNC4C3)c(F)cc2c1=O (centres unmarked) [Example 43A, 1-cyclopropyl-7-(2,8-diazabicyclo[4.3.0]non-8-yl)-6,8-difluoro-1,4-dihydro-4-oxo-3-quinolinecarboxylic acid mesylate]																readily soluble in water
